Experimental data as given in patent US10961222B2, “Chemical compound of isocitrate dehydrogenase inhibitor, and application thereof” (NANJING SANHOME PHARMACEUTICAL CO., LTD., priority 2016, dated 2021).

These compounds were tested against T1, IDH2-R140Q mutant enzyme (Homo sapiens, UniProt P48735, R140Q) (assay: Inhibitory activity of compounds on IDH2-R140Q enzyme in vitro (diaphorase/resazurin fluorescence)). Details: IDH2-R140Q, pre-incubated 16 h with enzyme and NADPH, reaction 1 h with α-ketoglutarate; read-out: R140Q IC50.
T1 construct: purchased BPS 71100-1
T1 sequence (P48735 40-452 R140Q): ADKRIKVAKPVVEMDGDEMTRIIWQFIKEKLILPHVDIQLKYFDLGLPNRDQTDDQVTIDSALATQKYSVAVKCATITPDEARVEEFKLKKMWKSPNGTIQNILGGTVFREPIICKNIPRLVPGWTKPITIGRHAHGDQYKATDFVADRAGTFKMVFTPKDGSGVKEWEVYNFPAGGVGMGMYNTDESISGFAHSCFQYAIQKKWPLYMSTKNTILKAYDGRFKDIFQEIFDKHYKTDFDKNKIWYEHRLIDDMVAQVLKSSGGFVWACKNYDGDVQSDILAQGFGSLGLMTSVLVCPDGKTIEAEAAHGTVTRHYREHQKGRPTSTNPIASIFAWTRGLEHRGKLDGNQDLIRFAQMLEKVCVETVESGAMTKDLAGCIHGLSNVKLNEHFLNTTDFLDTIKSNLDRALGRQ
Assay type: biochemical
Method: Instrument: SpectraMax M3 Multi-Mode Microplate Reader, purchased from Molecular Devices.
In a 96-well plate, 40 μL of reaction buffer containing 2× enzyme (IDH2-WT or IDH2-R140Q) and cofactor (NADP or NADPH) was added to each well of the compound group and the DMSO control group, and 40 μL of reaction buffer containing 2× cofactor (NADP or NADPH) was added to each well of the enzyme-free control group.
20 μL of reaction buffer containing 4× compound to be tested was added to each well of the compound group. The compound was pre-formulated into 200× mother liquor with 100% DMSO; in the final reaction system, the concentration of DMSO was 0.5%. 20 μL of reaction buffer containing DMSO was added to each well of the DMSO control group; in the final reaction system, the concentration of DMSO was 0.5%.
The compound was mixed well with the enzyme and cofactor, and pre-incubated at room temperature for 16 h;
20 μL of reaction buffer containing 4× reaction substrate was added to each well. After mixed uniformly, the mixture was reacted at room temperature for 1 h.
3× termination and detection solution (it was prepared with reaction buffer, the final concentration of Diaphorase was 0.015 mg/mL, and the final concentration of Resazurin was 0.03 mM) was prepared. 40 μL of 3× termination and detection solution was added to each well of the enzyme reaction system. After mixed uniformly, the mixture was incubated at room temperature for 10 min;
Fluorescence values of two wells were obtained and averaged and the activity rate (Activity %) was calculated. The calculation formula: Activity %=(Measured data−Subtract background)/(DMSO Control−Subtract background)×100, wherein “Measured data” is fluorescence value of the compound in the pre-incubated wells, “Subtract background” is the fluorescence value of the enzyme-free control wells, and “DMSO Control” is the fluorescence value in the DMSO pre-incubated wells. Data was processed by GraphPad Prism v5.0 software and fitted to obtain IC50.

| Compound | IC50 |
| --- | --- |
| FC(F)(F)c1cc(Nc2nc(-c3cccc(C(F)(F)F)n3)nc(N3CCNCC3)n2)ccn1 [Example 5, 4-(Piperazin-1-yl)-6-(6-(trifluoromethyl)pyridin-2-yl)-N-(2-(trifluoromethyl)pyridin-4-yl)-1,3,5-triazin-2-amine] | 25 nM |
| FC1(F)CC=C(c2nc(Nc3ccnc(C(F)(F)F)c3)nc(-c3cccc(C(F)(F)F)n3)n2)CC1 [Example 25, 4-(4,4-Difluorocyclohexyl-1-en-1-yl)-6-(6-(trifluoromethyl)pyridin-2-yl)-N-(2-(trifluoromethyl)pyridin-4-yl)-1,3,5-triazin-2-amine] | 15 nM |
| CC(C)(O)C1CN(c2nc(Nc3ccnc(C(F)(F)F)c3)nc(-c3cccc(C(F)(F)F)n3)n2)C1 [Example 48, 4-(3-(2-propyl-2-ol)azetidin-1-yl)-6-(6-(trifluoromethyl)pyridin-2-yl)-N-(2-(trifluoromethyl)pyridin-4-yl)-1,3,5-triazin-2-amine] | 19 nM |
| FC(F)(F)c1cc(Nc2nc(-c3cccc(C(F)(F)F)n3)nc(N3CCCCC3)n2)ccn1 [Example 50, 4-(piperidin-1-yl)-6-(6-(trifluoromethyl)pyridin-2-yl)-N-(2-(trifluoromethyl)pyridin-4-yl)-1,3,5-triazin-2-amine] | 22 nM |
| FC1CCN(c2nc(Nc3ccnc(C(F)(F)F)c3)nc(-c3cccc(C(F)(F)F)n3)n2)CC1 [Example 19, 4-(4-Fluoropiperidin-1-yl)-6-(6-(trifluoromethyl)pyridin-2-yl)-N-(2-(trifluoromethyl)pyridin-4-yl)-1,3,5-triazin-2-amine] | 14 nM |
| N#C[C@@H]1CCN(c2nc(Nc3ccnc(C(F)(F)F)c3)nc(-c3cccc(C(F)(F)F)n3)n2)C1 [Example 52, 4-((R)-3-cyanopyrrolidin-1-yl)-6-(6-(trifluoromethyl)pyridin-2-yl)-N-(2-(trifluoromethyl)pyridin-4-yl)-1,3,5-triazin-2-amine] | 23 nM |
| O[C@H]1CCCN(c2nc(Nc3ccnc(C(F)(F)F)c3)nc(-c3cccc(C(F)(F)F)n3)n2)C1 [Example 10, 4-((S)-3-hydroxypiperidin-1-yl)-6-(6-(trifluoromethyl)pyridin-2-yl)-N-(2-(trifluoromethyl)pyridin-4-yl)-1,3,5-triazin-2-amine] | 19 nM |
| O[C@@H]1CCN(c2nc(Nc3ccnc(C(F)(F)F)c3)nc(-c3cccc(C(F)(F)F)n3)n2)C1 [Example 17, 4-((R)-3-hydroxypyrrolidin-1-yl)-6-(6-(trifluoromethyl)pyridin-2-yl)-N-(2-(trifluoromethyl)pyridin-4-yl)-1,3,5-triazin-2-amine] | 23 nM |
| FC(F)(F)c1cc(Nc2nc(-c3cccc(C(F)(F)F)n3)nc(N3CCCC(C(F)(F)F)C3)n2)ccn1 (stereo not drawn) [Example 7, 4-(3-(Trifluoromethyl)piperidin-1-yl)-6-(6-(trifluoromethyl)pyridin-2-yl)-N-(2-(trifluoromethyl)pyridin-4-yl)-1,3,5-triazin-2-amine] | 20 nM |
| OC1CCCN(c2nc(Nc3ccnc(C(F)(F)F)c3)nc(-c3cccc(C(F)(F)F)n3)n2)C1 (stereo in doubt) [Example 9, 4-((R)-3-hydroxypiperidin-1-yl)-6-(6-(trifluoromethyl)pyridin-2-yl)-N-(2-(trifluoromethyl)pyridin-4-yl)-1,3,5-triazin-2-amine] | 22 nM |
| FC1CCCN(c2nc(Nc3ccnc(C(F)(F)F)c3)nc(-c3cccc(C(F)(F)F)n3)n2)C1 (stereo not drawn) [Example 11, 4-(3-Fluoropiperidin-1-yl)-6-(6-(trifluoromethyl)pyridin-2-yl)-N-(2-(trifluoromethyl)pyridin-4-yl)-1,3,5-triazin-2-amine] | 14 nM |
| O[C@H]1CCN(c2nc(Nc3ccnc(C(F)(F)F)c3)nc(-c3cccc(C(F)(F)F)n3)n2)C1 [Example 18, 4-((S)-3-hydroxypyrrolidin-1-yl)-6-(6-(trifluoromethyl)pyridin-2-yl)-N-(2-(trifluoromethyl)pyridin-4-yl)-1,3,5-triazin-2-amine] | 26 nM |
| O=S1(=O)CCN(c2nc(Nc3ccnc(C(F)(F)F)c3)nc(-c3cccc(C(F)(F)F)n3)n2)CN1 [Example 8] | 18 nM |
| FC(F)(F)c1cc(Nc2nc(-c3cccc(C(F)(F)F)n3)nc(C3CCCCN3)n2)ccn1 (stereo not drawn) [Example 13, 4-(Piperidin-2-yl)-6-(6-(trifluoromethyl)pyridin-2-yl)-N-(2-(trifluoromethyl)pyridin-4-yl)-1,3,5-triazin-2-amine] | 15 nM |
| FC1(F)CCC(c2nc(Nc3ccnc(C(F)(F)F)c3)nc(-c3cccc(C(F)(F)F)n3)n2)CC1 [Example 26, 4-(4,4-Difluorocyclohexyl)-6-(6-(trifluoromethyl)pyridin-2-yl)-N-(2-(trifluoromethyl)pyridin-4-yl)-1,3,5-triazin-2-amine] | 21 nM |
| FC1(F)CCN(c2nc(Nc3ccnc(C(F)(F)F)c3)nc(-c3cccc(C(F)(F)F)n3)n2)C1 [Example 15, 4-(3,3-Difluoropyrrolidin-1-yl)-6-(6-(trifluoromethyl)pyridin-2-yl)-N-(2-(trifluoromethyl)pyridin-4-yl)-1,3,5-triazin-2-amine] | 18 nM |
| N#CC1CCCN(c2nc(Nc3ccnc(C(F)(F)F)c3)nc(-c3cccc(C(F)(F)F)n3)n2)C1 (stereo not drawn) [Example 12, 4-(3-Cyanopiperidin-1-yl)-6-(6-(trifluoromethyl)pyridin-2-yl)-N-(2-(trifluoromethyl)pyridin-4-yl)-1,3,5-triazin-2-amine] | 25 nM |
| OC1(C(F)(F)F)CCN(c2nc(Nc3ccnc(C(F)(F)F)c3)nc(-c3cccc(C(F)(F)F)n3)n2)CC1 [Example 21, 4-(4-Trifluoromethyl-4-hydroxypiperidin-1-yl)-6-(6-(trifluoromethyl)pyridin-2-yl)-N-(2-(trifluoromethyl)pyridin-4-yl)-1,3,5-triazin-2-amine] | 25 nM |
